The results in this text go back to article PMC5220080, “Modulating Beta-Cardiac Myosin Function at the Molecular and Tissue Levels” (Frontiers in Physiology, 2017).

For orientation: IC50 means the concentration needed to halve the response being measured. Low readings indicate inhibition by little substance, high ones a need for much substance.

In assay [1] the target is T1, human beta-cardiac myosin subfragment 1 (M2β-S1) (Homo sapiens, UniProt P12883). As to the kind of experiment: stopped-flow mant fluorescence, release from acto-M2β-S1 on mixing with ATP (rate constant without pN-Bleb). The assay is classed as binding. Further details: gene MYH7; subfragment 1, amino acids 1–843, N-terminal FLAG tag, C-terminal Avi tag; with actin. The conditions noted are these: read-out: stopped-flow mant fluorescence, release from acto-M2β-S1 on mixing with ATP (rat).

For assay [2], the target named is T1, human beta-cardiac myosin subfragment 1 (M2β-S1). As to the kind of experiment: actin-activated ATPase (NADH-linked assay); also in vitro motility (IC50 […]). The assay is classed as biochemical. Further details: gene MYH7; subfragment 1, amino acids 1–843, N-terminal FLAG tag, C-terminal Avi tag.
The target of assay [3] is T2, skeletal muscle heavy meromyosin (Sk HMM).
T2 construct: heavy meromyosin, prepared from rabbit psoas muscle (Results text says chicken)
The description is as above. The assay is classed as biochemical.

T1 sequence (P12883 1-843): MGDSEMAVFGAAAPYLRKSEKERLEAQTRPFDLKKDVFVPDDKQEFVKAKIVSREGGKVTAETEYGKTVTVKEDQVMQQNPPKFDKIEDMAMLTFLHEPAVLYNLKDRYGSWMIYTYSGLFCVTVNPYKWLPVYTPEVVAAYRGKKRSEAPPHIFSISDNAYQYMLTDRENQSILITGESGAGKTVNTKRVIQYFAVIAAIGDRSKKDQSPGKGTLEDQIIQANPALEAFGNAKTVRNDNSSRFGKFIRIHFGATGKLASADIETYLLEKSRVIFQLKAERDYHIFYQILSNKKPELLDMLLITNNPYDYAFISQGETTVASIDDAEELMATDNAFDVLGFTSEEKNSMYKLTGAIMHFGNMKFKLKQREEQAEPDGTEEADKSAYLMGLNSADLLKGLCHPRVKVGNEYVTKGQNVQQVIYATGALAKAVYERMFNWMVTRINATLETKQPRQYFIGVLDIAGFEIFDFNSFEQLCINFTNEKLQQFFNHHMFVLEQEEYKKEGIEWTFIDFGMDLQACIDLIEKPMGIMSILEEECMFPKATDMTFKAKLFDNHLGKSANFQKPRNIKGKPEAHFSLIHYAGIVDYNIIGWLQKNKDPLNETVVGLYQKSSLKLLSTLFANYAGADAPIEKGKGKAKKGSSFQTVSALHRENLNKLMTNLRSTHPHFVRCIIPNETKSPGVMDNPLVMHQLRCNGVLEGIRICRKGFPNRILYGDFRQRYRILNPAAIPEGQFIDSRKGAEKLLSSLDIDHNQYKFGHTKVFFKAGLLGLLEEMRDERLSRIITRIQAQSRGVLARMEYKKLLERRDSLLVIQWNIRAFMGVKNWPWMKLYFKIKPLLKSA

With `CNc1ccccc1C(=O)O[C@H]1C[C@H](n2cnc3c(N)ncnc32)O[C@@H]1COP(=O)(O)OP(=O)(O)O`, the koff in assay [1] stood at 229 ± 6.5 s⁻¹.
On to `Cc1ccc2c(c1)C(=O)[C@]1(O)CCN(c3ccc([N+](=O)[O-])cc3)C1=N2` [pN-Bleb, para-Nitroblebbistatin], for which the values for the IC50 in assay [2] and in assay [3] were 12.3 ± 1.8 µM and 0.43 ± 0.11 µM, respectively.
